Experimental data reported in publication PMC7073229, “Novel Quinoline Compounds Active in Cancer Cells through Coupled DNA Methyltransferase Inhibition and Degradation” (Cancers, 2020).
Read-outs that look alike come from different tables or passages of the source.

Experiments:
U937 AML cells [1] = settings: MTT, 48 h, read-out: Antiproliferative Activity (IC50 ± SD) U937, cited from earlier work
HL60 APL cells [2] = settings: MTT, 48 h, read-out: Antiproliferative Activity (IC50 ± SD) HL60, cited from earlier work
[3] = test system: methylated UCHL1 promoter (pUCHL1) in HCT116 cells; assay: UCHL1 promoter demethylation assay (EGFP induction, FACS); assay type: cell-based, human; settings: HCT116, 0.5 µM, five days
Protocol: The assay was performed as described in [29]. Briefly, human colon cancer HCT116 (ATCC, VA, USA) cells were grown in Dulbecco’s Modified Eagle Medium (DMEM; Euroclone, Milan, Italy) supplemented with 10% fetal bovine serum (FBS; Euroclone, Milan, Italy), 2 mM L-glutamine (Euroclone), and antibiotics (100 U/mL penicillin, 100 µg/mL streptomycin) (Euroclone). The pUMLIEP vector (composed by MetLuc-IRES-EGFP construct upon the control of the ubiquitin carboxyl-terminal hydrolase L1 (UCHL1)) was linearized and methylated by with ClaI and SssI-methylase enzymes (New England Biolabs, Milan, Italy). After, methylated pUMLIEP was transfected into HCT116 cells following the protocol described in [30]. […] On day 5, cells were observed under by a fluorescent microscope (Cytation 5 Cell Imaging Multi-Mode Reader (BioTeK Milan, Italy) and BD Accuri flow cytometers. Nuclei were counterstained with DAPI (10 µg/mL, Invitrogen, Tournai, Belgium).

F21T G-quadruplex DNA = assay: FRET melting assay, G-quadruplex DNA; assay type: binding
Protocol: (§1) Experimental procedure for Fluorescence Resonance Energy Transfer (FRET) melting assay Oligonucleotides labeled at 5’ with FAM (6-carboxyfluorescein) as donor fluorophore and TAMRA (6 - carboxytetramethylrhodamine) at 3’ as the acceptor fluorophore were purchased from STAB VIDA (Portugal). Each oligonucleotide was initial ly diluted to 100 µM in water (Molecular Biology Reagent, Sigma). Stock solutions of 20 µM and subsequent dilutions were made with FRET buffer (60 mM KCl, potassium cacodylate, pH 7.4). Tagged oligonucleotides at 0.4 µM were annealed by heating at 90 -95 °C for 10 min, followed by slow cooling to room temperature. St ock solutions of compounds (1 mM) were prepared in 10% DMSO. Subsequent dilutions were performed using FRET buffer. Annealed DNA (50 µL) and test compound solutions (50 µL) were distributed across 96-well RT-PCR plates (PCR-96-FLT-C, Axygen, Inc). Fluorescence readings (performed in a 7300 RT -PCR equipment from Applied Biosystems) were taken at intervals of 0.5 °C in the range 31 –95 °C, with the temperature being maintained for 30 seconds prior to each reading. Experiments were performed in triplicate. Fina l analysis of the data was carried out with GraphPad Prism v.5.0 (GraphPad Software Inc., La Jolla, CA, USA).
(§2) The advanced curve-fitting function in GraphPad Prism (nonlinear regression fit) was used for calculation of ΔTm values. Only results with fitting r2 values > 0.75 (std error < 0.25) were considered.
(§3) Table S2. Synthetic oligonucleotides used in FRET experiments.

KRAS21R G-quadruplex DNA = assay: FRET melting assay, G-quadruplex DNA; assay type: binding
Protocol: as §1, §2, §3

[4] = test system: H1299 human non-small cell lung carcinoma; assay: Antiproliferative activity, MTT; assay type: cell-based; settings: 48 h treatment, read-out: Antiproliferative Activity (IC50 ± SD) H1299
Protocol: (§4) U937 histiocytic lymphoma, HL60 acute promyelocytic leukemia, H1299 lung adenocarcinoma, MCF7 breast carcinoma, HT1080 fibrosarcoma, M14 melanoma, HeLa epithelial cervix carcinoma and peripheral blood B lymphocyte AHH1 human cell lines were obtained from the Deutsche Sammlung für Mikroorganismen and Zellkulturen (DSZM, Braunschweig, Germany) and were maintained in RPMI 1640 medium contained 10% fetal bovine serum (FBS), 2 mM L-glutamine, and antibiotics in a humidified atmosphere with 5% CO2 at 37 °C. HCT116 (ATCC, VA, USA) cells were propagated in Dulbecco’s modified Eagle medium (DMEM) (Euroclone, Milan, Italy) with 10% fetal bovine serum (FBS; Euroclone, Milan, Italy), 2 mM L-glutamine (Euroclone, Milan, Italy), and antibiotics (100 U/mL penicillin, 100 µg/mL streptomycin) (Euroclone, Milan, Italy). The experiments were performed with early (3–20) cell passages. Cell lines were treated with compounds at the indicated concentrations in the exponential growth phase.
(§5) Then, increasing concentrations of different compounds (ranging from 0.01 to 100 μM) were added, and cell proliferation was evaluated by a MTT assay after 48 h. Cells exposed to DMSO were used as control. The effect of compounds was evaluated using the CellTiter-Glo luminescent cell viability assay (Promega, Madison, WI, USA) according to the manufacturer’s instructions. For HCT116, 5 × 10^4 cells/well were plated in 24-well plate and treated, in duplicate, with compounds at several concentrations for 24 and 48 h of induction. After treatments, MTT solution was added for 3 h at 0.5 mg/mL, the obtained crystals were dissolved in DMSO (Sigma-Aldrich, Milan, Italy), and the absorbance was read at a wavelength of 570 nm with reader TECAN M-200. All the experiments were performed in triplicate and repeated at least three times.
(§6) IC50 values of compounds against cellular viability were determined by using nonlinear regression fitting curves with GraphPad Prism 8. The t-test used for statistical analyses was performed with GraphPad Prism 8. All the tests were one-tailed and a p-value < 0.05 was considered statistically significant.

[5] = test system: HCT116 human colorectal carcinoma; assay: Antiproliferative activity, MTT; assay type: cell-based; settings: HCT-116, 48 h treatment, read-out: Antiproliferative Activity (IC50 ± SD) HCT116
Protocol: as §4, §5, §6

[6] = test system: HT1080 human fibrosarcoma; assay: Antiproliferative activity, MTT; assay type: cell-based; settings: HT-1080, 48 h treatment, read-out: Antiproliferative Activity (IC50 ± SD) HT1080
Protocol: as §4, §5, §6

[7] = test system: HeLa epithelial cervix carcinoma; assay: Antiproliferative activity, MTT; assay type: cell-based; settings: Homo sapiens, 48 h treatment, read-out: Antiproliferative Activity (IC50 ± SD) HeLa
Protocol: as §4, §5, §6

M14 human melanoma = assay: Antiproliferative activity, MTT; assay type: cell-based; settings: 48 h treatment, read-out: Antiproliferative Activity (IC50 ± SD) M14
Protocol: as §4, §5, §6

human DNMT1 (hDNMT1) = biological target: T1, human DNMT1 (hDNMT1) (Homo sapiens, UniProt P26358); assay: DNMT1 assay ([methyl-3H]SAM, Flashplate); assay type: biochemical; settings: mean of at least two independent experiments; read-out: Enzyme Inhibition (EC50 ± SD) hDNMT1
T1 construct: His; made in house
Protocol: His-DNMT1 (182 kDa, human) was cloned, expressed, and purified as described by Lee et al.. The DNMT1 assay was performed according to Gros et al.. […] The reaction was incubated 2 h at 37 °C, then 8 µL of the solution are transferred into a streptavidin 96-well scintillant coated Flashplate containing 190 µL of 20 mM SAH in 50 mM Tris–HCl (pH 7.4). The Flashplate is agitated for 1 h at room temperature and washed. The plate is read with TopCount (PerkinElmer). In this assay, the negative and positive controls were defined as wells without enzyme and wells with only DMSO, respectively.

[8] = biological target: T2, C-terminal catalytic domain of human DNMT3A (hDNMT3A) (Homo sapiens, UniProt Q9Y6K1); assay: DNMT3A restriction-based fluorescence assay; assay type: biochemical; settings: mean of at least two independent experiments; read-out: Enzyme Inhibition (EC50 ± SD) hDNMT3A
T2 construct: the C-terminal catalytic domain of human DNMT3A (hDNMT3A)
Protocol: DNMT3A enzyme inhibition was adapted from the restriction-based fluorescence assay protocol described in Ceccaldi et al.. Briefly, a biotin-labelled oligonucleotide at the 5’ end is hybridized to his complementary strand labelled at the 3’ end with 6-carboxyfluorescein. The DNA duplex containing only one single CpG site overlapping with a restriction site of a methylation sensitive restriction enzyme is transferred in the wells coated with avidin. The methylation reaction is performed by adding human C-terminal DNMT3A at the final concentration of 4 ng/µL in a total volume of 50 µL in the presence of the inhibitors at various concentrations and the co-substrate SAM at the final concentration of 20 µM. The plate was incubated for 1 h at 37 °C, washed, and added with the methylation sensitive restriction enzyme HpyCH4IV, incubated for 1 h further at 37 °C, washed and the fluorescence measured with a PerkinElmer Envision Multilabel Plate Reader. The data are expressed as percentage of inhibition vs. log concentration (M). Data are normalized referring to the “restriction control” (wells coated with labelled duplex not treated nor exposed to DNMT3A, but only cleaved by HpyCH4IV) as the maximum of inhibition (100%) and to the “DMSO control” (wells coated with labelled duplex but treated just with 0.1% DMSO exposed to DNMT3A and then to HpyCH4IV) as the minimum of inhibition (0%; total methylation).

HL60 APL cells [9] = assay: Antiproliferative activity, MTT; assay type: cell-based; settings: Homo sapiens, HL-60, 48 h treatment, read-out: Antiproliferative Activity (IC50 ± SD) HL60
Protocol: as §4, §5, §6

U937 AML cells [10] = assay: Antiproliferative activity, MTT; assay type: cell-based; settings: Homo sapiens, U-937, 48 h treatment, read-out: Antiproliferative Activity (IC50 ± SD) U937
Protocol: as §4, §5, §6

T1 sequence (P26358 whole entry): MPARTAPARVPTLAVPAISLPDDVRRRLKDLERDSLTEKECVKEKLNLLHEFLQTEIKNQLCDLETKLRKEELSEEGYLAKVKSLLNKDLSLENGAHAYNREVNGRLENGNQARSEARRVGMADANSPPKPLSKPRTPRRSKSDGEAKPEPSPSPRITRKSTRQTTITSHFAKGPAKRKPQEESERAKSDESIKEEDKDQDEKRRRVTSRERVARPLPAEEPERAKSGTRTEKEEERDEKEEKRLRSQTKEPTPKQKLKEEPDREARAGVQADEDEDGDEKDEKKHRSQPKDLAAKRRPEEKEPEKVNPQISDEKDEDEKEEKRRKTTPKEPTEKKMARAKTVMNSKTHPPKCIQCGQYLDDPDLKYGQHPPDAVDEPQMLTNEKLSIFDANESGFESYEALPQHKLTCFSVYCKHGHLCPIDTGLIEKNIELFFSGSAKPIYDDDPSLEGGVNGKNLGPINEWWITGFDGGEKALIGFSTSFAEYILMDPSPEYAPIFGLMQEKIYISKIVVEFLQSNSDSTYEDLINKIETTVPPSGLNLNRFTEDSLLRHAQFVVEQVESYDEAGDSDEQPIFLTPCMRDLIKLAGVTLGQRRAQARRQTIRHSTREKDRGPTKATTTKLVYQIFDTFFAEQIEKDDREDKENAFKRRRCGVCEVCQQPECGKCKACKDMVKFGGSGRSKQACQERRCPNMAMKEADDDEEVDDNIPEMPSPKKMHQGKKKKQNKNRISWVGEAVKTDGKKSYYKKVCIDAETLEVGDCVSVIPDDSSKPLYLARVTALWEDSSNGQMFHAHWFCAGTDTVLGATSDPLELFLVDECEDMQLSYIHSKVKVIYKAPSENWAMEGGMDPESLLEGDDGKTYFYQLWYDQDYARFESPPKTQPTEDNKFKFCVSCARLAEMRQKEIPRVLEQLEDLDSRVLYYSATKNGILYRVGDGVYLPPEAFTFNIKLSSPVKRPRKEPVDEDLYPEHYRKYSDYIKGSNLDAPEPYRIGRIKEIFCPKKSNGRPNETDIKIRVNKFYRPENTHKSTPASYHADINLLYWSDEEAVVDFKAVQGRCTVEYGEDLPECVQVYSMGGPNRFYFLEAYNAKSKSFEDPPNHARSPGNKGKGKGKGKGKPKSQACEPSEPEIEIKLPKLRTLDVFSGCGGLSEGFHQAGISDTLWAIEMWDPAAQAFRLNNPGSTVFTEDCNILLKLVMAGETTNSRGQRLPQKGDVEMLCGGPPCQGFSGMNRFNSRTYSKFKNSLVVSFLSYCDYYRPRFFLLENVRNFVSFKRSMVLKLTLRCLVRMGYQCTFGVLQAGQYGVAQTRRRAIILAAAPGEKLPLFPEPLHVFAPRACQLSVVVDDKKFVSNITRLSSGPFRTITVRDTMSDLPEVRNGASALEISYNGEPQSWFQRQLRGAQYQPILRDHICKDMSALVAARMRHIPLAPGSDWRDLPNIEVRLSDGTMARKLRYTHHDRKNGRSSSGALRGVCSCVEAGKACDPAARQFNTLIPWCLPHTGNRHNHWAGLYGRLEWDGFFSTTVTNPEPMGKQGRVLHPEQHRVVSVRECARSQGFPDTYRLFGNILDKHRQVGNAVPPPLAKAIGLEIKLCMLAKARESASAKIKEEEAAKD
T2 sequence (Q9Y6K1 634-912 limits assumed): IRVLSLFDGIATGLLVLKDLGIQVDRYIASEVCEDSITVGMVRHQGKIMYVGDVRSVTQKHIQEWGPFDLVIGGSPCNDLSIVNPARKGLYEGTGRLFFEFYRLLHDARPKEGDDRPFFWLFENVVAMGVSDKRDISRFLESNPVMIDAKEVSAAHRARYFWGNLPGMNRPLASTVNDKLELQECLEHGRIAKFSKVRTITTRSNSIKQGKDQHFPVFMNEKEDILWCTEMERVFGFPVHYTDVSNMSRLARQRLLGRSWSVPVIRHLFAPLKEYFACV

Structure (SMILES)	IC50 (U937 AML cells [1]; reference compounds) [µM]	IC50 (HL60 APL cells [2]; reference compounds) [µM]	pUCHL1 demethylation, EGFP-positive cells (FACS R1) [3] [%]	F21T ∆Tm (F21T G-quadruplex DNA; 5 µM)	F21T ∆Tm (F21T G-quadruplex DNA; 10 µM)	KRAS ∆Tm (KRAS21R G-quadruplex DNA; 5 µM)	KRAS ∆Tm (KRAS21R G-quadruplex DNA; 10 µM)	IC50 ([4]; Homo sapiens, NCI-H1299, 48 h) [µM]	IC50 [5] [µM]	IC50 [6] [µM]	IC50 [7] [µM]	IC50 (M14 human melanoma) [µM]	IC50 (U937 AML cells [1]; reference compound) [µM]	IC50 (HL60 APL cells [2]; reference compound) [µM]	IC50 [4] [µM]	EC50 (human DNMT1 (hDNMT1)) [µM]	EC50 [8] [µM]	IC50 (HL60 APL cells [9]) [µM]	IC50 (U937 AML cells [10]) [µM]
Cc1cc(Nc2ccc(NC(=O)c3ccc(Nc4cc(C)nc(N)n4)cc3)cc2)nc(N)n1 [Compound 3]	60 ± 8.2	119 ± 12.9	–	–	–	–	–	–	–	–	–	–	–	–	–	–	–	–	–
Cc1cc(Nc2ccc(NC(=O)c3ccc(Nc4ccnc5ccccc45)cc3)cc2)nc(N)n1 [SGI-1027, reference compound]	0.7 ± 0.08	0.7 ± 0.16	32.9	1.9 ºC	7.2 ºC	6.7 ºC	8.7 ºC	–	–	–	–	–	–	–	–	–	–	–	–
O=C(Nc1ccc(NC(=O)c2ccc(Nc3ccnc4ccccc34)cc2)cc1)OCc1ccccc1 [Compound 4, reference compound]	–	–	–	2.7 ºC	6.9 ºC	1 ºC	10.4 ºC	5.9 ± 0.8	8.6 ± 1	1.7 ± 0.2	3.2 ± 0.5	2.9 ± 0.4	2.3 ± 0.4	8.3 ± 1	–	–	–	–	–
O=C(Nc1ccc(Nc2ccnc3ccccc23)cc1)c1ccc(Nc2ccnc3ccccc23)cc1 [Compound 2, reference compound]	6.6 ± 0.9	65 ± 8.1	–	0.6 ºC	6.2 ºC	1.0 ºC	9.6 ºC	11	13.3 ± 2.1	17 ± 2.1	52 ± 5.7	80 ± 9.1	–	–	11.4 ± 1.8	–	–	–	–
Cc1cc(Nc2cccc(CNC(=O)c3cccc(Nc4ccnc5ccccc45)c3)c2)nc(N)n1 [Compound 1c]	–	–	–	–	–	–	–	–	–	–	–	–	–	–	–	35 ± 7	31 ± 6	36 ± 4	25.8 ± 3.2
